In ChEMBL document CHEMBL2440092, “Investigation of aryl halides as ketone bioisosteres: refinement of potent and selective inhibitors of human cytochrome P450 19A1 (aromatase)” (Bioorg Med Chem Lett, 2013):

Biological target: T1, Aromatase (Homo sapiens, UniProt P11511)
T1 sequence (P11511 whole entry): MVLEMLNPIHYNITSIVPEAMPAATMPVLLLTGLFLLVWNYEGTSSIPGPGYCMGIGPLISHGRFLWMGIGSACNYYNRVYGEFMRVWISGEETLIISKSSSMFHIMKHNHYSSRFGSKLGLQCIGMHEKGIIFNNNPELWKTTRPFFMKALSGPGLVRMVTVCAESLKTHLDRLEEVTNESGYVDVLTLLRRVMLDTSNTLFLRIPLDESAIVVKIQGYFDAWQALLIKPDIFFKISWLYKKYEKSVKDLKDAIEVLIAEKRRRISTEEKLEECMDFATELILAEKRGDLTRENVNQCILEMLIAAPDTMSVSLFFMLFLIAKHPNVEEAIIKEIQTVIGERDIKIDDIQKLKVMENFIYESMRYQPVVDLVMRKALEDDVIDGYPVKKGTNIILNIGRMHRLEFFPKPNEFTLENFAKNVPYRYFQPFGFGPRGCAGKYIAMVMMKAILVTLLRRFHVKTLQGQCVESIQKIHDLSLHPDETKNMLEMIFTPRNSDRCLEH
Description: Inhibition of recombinant human aromatase using O-dibenzylfluorescein benzyl ester as substrate by fluorometric assay

SMILES	Ki [nM]
COCO[C@@H](c1ccc(Br)cc1)[C@@H](Cn1ccnn1)c1ccccc1	20
COCO[C@@H](c1ccccc1)[C@@H](Cn1ccnn1)c1ccc(Br)cc1	111
O[C@@H](c1ccc(F)cc1)[C@@H](Cn1ccnn1)c1ccccc1	330
O[C@@H](c1ccccc1)[C@@H](Cn1ccnn1)c1ccc(Br)cc1	820
CC(=O)O[C@@H](c1ccc(F)cc1)[C@@H](Cn1ccnn1)c1ccccc1	110
CC(=O)O[C@@H](c1ccc(Br)cc1)[C@@H](Cn1ccnn1)c1ccccc1	90
CC(=O)O[C@@H](c1ccccc1)[C@@H](Cn1ccnn1)c1ccc(Br)cc1	237
COCO[C@@H](c1ccc(F)cc1)[C@H](Cn1ccnn1)c1ccccc1	160
COCO[C@@H](c1ccc(Br)cc1)[C@H](Cn1ccnn1)c1ccccc1	70
COCO[C@@H](c1ccccc1)[C@H](Cn1ccnn1)c1ccc(Br)cc1	20
O[C@@H](c1ccc(F)cc1)[C@H](Cn1ccnn1)c1ccccc1	200
O[C@@H](c1ccccc1)[C@H](Cn1ccnn1)c1ccc(Br)cc1	841
CC(=O)O[C@@H](c1ccc(F)cc1)[C@H](Cn1ccnn1)c1ccccc1	350
CC(=O)O[C@@H](c1ccccc1)[C@H](Cn1ccnn1)c1ccc(Br)cc1	647
COCO[C@@H](c1ccc(F)cc1)[C@@H](Cn1ccnn1)c1ccccc1	80
